This experiment addresses KiSS-1 receptor (Homo sapiens, UniProt Q969F8). In words: Binding Assay: Binding inhibition assay using human GPR54.

This note sets out measurements from ChEMBL document CHEMBL3638798, “Metastin derivative and use thereof” (2013).

In general, IC50 refers to the concentration that inhibits the measured activity by half. The low end stands for greater potency, the high end for weaker potency.

KiSS-1 receptor, sequence (Q969F8 whole entry): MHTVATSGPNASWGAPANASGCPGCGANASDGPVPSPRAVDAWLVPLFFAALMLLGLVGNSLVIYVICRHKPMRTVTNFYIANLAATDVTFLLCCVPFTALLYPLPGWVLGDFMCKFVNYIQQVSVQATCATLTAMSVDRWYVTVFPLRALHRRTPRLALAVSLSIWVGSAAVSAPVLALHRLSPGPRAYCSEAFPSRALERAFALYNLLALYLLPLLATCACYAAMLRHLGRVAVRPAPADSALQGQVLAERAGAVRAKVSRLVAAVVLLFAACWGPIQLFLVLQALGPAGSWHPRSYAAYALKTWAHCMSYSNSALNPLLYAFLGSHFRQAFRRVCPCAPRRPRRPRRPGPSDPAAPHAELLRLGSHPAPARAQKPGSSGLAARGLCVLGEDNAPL

Consider `CNCC(=O)N[C@@H](CC(C)C)C(C)=O`, for which the IC50 stood at 0.71 nM.
